Source: PubChem BioAssay AID2060882 (Molecular Pharmacology Branch, DTP, NCI, 2025)

Tested on: 898857-211-R-J1-PDC complex spheroids, growth % test/control
Assay: Anticancer human tumor 898857-211-R-J1-PDC patient-derived melanoma cell line growth inhibition [RAS]
Conditions: for IC50: curve of first compound; for viability, T/C: stronger effect = lower value
Summary of the method: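 Agents were tested in combination matrices in half-log decrements from a top concentration at or near clinical Cmax (10 microM if undetermined). Targets were multi-cell spheroids of tumour lines plus HUVEC and MSC stromal cells.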

[1] = second compound 0.000949 µM, first compound 0.0316 µM
[2] = second compound 0.000949 µM, first compound 0.1 µM
[3] = second compound 0.000949 µM, first compound 0.316 µM
[4] = second compound 0.000949 µM, first compound 1 µM
[5] = second compound 0.000949 µM, first compound 3.16 µM
[6] = second compound 0.000949 µM, first compound 10 µM
[7] = second compound 0.003 µM, first compound 0.0316 µM
[8] = second compound 0.003 µM, first compound 0.1 µM
[9] = second compound 0.003 µM, first compound 0.316 µM
[10] = second compound 0.003 µM, first compound 1 µM
[11] = second compound 0.003 µM, first compound 3.16 µM
[12] = second compound 0.003 µM, first compound 10 µM
[13] = second compound 0.00949 µM, first compound 0.0316 µM
[14] = second compound 0.00949 µM, first compound 0.1 µM
[15] = second compound 0.00949 µM, first compound 0.316 µM
[16] = second compound 0.00949 µM, first compound 1 µM
[17] = second compound 0.00949 µM, first compound 3.16 µM
[18] = second compound 0.00949 µM, first compound 10 µM
[19] = second compound 0.03 µM, first compound 0.0316 µM
[20] = second compound 0.03 µM, first compound 0.1 µM
[21] = second compound 0.03 µM, first compound 0.316 µM
[22] = second compound 0.03 µM, first compound 1 µM
[23] = second compound 0.03 µM, first compound 3.16 µM
[24] = second compound 0.03 µM, first compound 10 µM
[25] = second compound 0.0949 µM, first compound 0.0316 µM
[26] = second compound 0.0949 µM, first compound 0.1 µM
[27] = second compound 0.0949 µM, first compound 0.316 µM
[28] = second compound 0.0949 µM, first compound 1 µM
[29] = second compound 0.0949 µM, first compound 3.16 µM
[30] = second compound 0.0949 µM, first compound 10 µM
[31] = second compound 0.3 µM, first compound 0.0316 µM
[32] = second compound 0.3 µM, first compound 0.1 µM
[33] = second compound 0.3 µM, first compound 0.316 µM
[34] = second compound 0.3 µM, first compound 1 µM
[35] = second compound 0.3 µM, first compound 3.16 µM
[36] = second compound 0.3 µM, first compound 10 µM
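Note: spheroids exposed to compound for seven days before readout.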
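Throughout, for viability, T/C: 100% = DMSO vehicle control wells.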

`CC(=O)OC12COC1CC(O)C1(C)C(=O)C(O)C3=C(C)C(OC(=O)C(O)C(NC(=O)OC(C)(C)C)c4ccccc4)CC(O)(C(OC(=O)c4ccccc4)C21)C3(C)C` (centres undefined) + CCn1c(-c2cccnc2C(C)OC)c2c3cc(ccc31)N1CCOC(CC(NC(=O)C(C(C)C)N(C)C(=O)C3(F)CCN(C(=O)C#CC(C)(C)N(C)C)CC3)C(=O)N3CCCC(N3)C(=O)OCC(C)(C)C2)C1 was tested, and the IC50 (second compound 0.000949 µM) was < 31.6 nM, the IC50 (second compound 0.003 µM) was < 31.6 nM and the IC50 (second compound 0.00949 µM) was < 31.6 nM. The IC50 (second compound 0.03 µM) was < 31.6 nM, the IC50 (second compound 0.0949 µM) was < 31.6 nM and the IC50 (second compound 0.3 µM) was < 31.6 nM. The viability, T/C [1] was 10.8%, the viability, T/C [2] was 9.24% and the viability, T/C [3] was 8.35%. It also gave a viability, T/C [4] of 12.8%, a viability, T/C [5] of 18.6% and a viability, T/C [6] of 20.4%. For the same compound, the viability, T/C [7] was 10.1%, the viability, T/C [8] was 11.5% and the viability, T/C [9] was 11.4%. The viability, T/C [10] was 12.4%, the viability, T/C [11] was 14% and the viability, T/C [12] was 20.9%. It also gave a viability, T/C [13] of 7.95%, a viability, T/C [14] of 8.82% and a viability, T/C [15] of 13.5%. The viability, T/C [16] was 11.8%, the viability, T/C [17] was 12.9% and the viability, T/C [18] was 20.2%. The viability, T/C [19] was 8.31%, the viability, T/C [20] was 10.6% and the viability, T/C [21] was 9.59%. It also gave a viability, T/C [22] of 13.5%, a viability, T/C [23] of 16.6% and a viability, T/C [24] of 15.3%. The viability, T/C [25] was 8.5%, the viability, T/C [26] was 10.2% and the viability, T/C [27] was 10.7%. The viability, T/C [28] was 11.4%, the viability, T/C [29] was 15.7% and the viability, T/C [30] was 14.4%. It also gave a viability, T/C [31] of 8.04%, a viability, T/C [32] of 7.55% and a viability, T/C [33] of 8.89%. For the same compound, the viability, T/C [34] was 9.35%, the viability, T/C [35] was 11.3% and the viability, T/C [36] was 7.88%.

`CCC(CC)c1cc(NC2CCC(N)C2)n2nccc2n1` (centres undefined) + CCn1c(-c2cccnc2C(C)OC)c2c3cc(ccc31)N1CCOC(CC(NC(=O)C(C(C)C)N(C)C(=O)C3(F)CCN(C(=O)C#CC(C)(C)N(C)C)CC3)C(=O)N3CCCC(N3)C(=O)OCC(C)(C)C2)C1 gave an IC50 (second compound 0.000949 µM) of 1120 nM, an IC50 (second compound 0.003 µM) of 1090 nM and an IC50 (second compound 0.00949 µM) of 968 nM. For the same compound, the IC50 (second compound 0.03 µM) was 1040 nM, the IC50 (second compound 0.0949 µM) was 748 nM and the IC50 (second compound 0.3 µM) was 415 nM. For the same compound, the viability, T/C [1] was 124%, the viability, T/C [2] was 105% and the viability, T/C [3] was 101%. For the same compound, the viability, T/C [4] was 57.4%, the viability, T/C [5] was 1.07% and the viability, T/C [6] was 0.23%. The viability, T/C [7] was 109%, the viability, T/C [8] was 106% and the viability, T/C [9] was 103%. For the same compound, the viability, T/C [10] was 54%, the viability, T/C [11] was 0.85% and the viability, T/C [12] was 0.65%. For the same compound, the viability, T/C [13] was 103%, the viability, T/C [14] was 100% and the viability, T/C [15] was 101%. The viability, T/C [16] was 48.5%, the viability, T/C [17] was 1.54% and the viability, T/C [18] was 0.27%. The viability, T/C [19] was 108%, the viability, T/C [20] was 109% and the viability, T/C [21] was 102%. The viability, T/C [22] was 51.9%, the viability, T/C [23] was 0.7% and the viability, T/C [24] was 0.63%. The viability, T/C [25] was 94.9%, the viability, T/C [26] was 105% and the viability, T/C [27] was 80.4%. The viability, T/C [28] was 40.9%, the viability, T/C [29] was 0.82% and the viability, T/C [30] was 0.45%. It also gave a viability, T/C [31] of 83.5%, a viability, T/C [32] of 72.2% and a viability, T/C [33] of 59.9%. It also gave a viability, T/C [34] of 22.7%, a viability, T/C [35] of 1.27% and a viability, T/C [36] of 0.27%.
